This assay has as its target T1, horseradish peroxidase (HRP) tagged delF508-CFTR (Homo sapiens, UniProt P13569, DEL508-508).
T1 construct: expressed in transfected cells
Kind of assay: Measurement of delF508-CFTR-HRP surface expression in CFBE41o- cells.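 On DelF508-CFTR-HRP Amax %: percent efficacy relative to reference corrector lumacaftor.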 The assay is classed as cell-based. Particulars: delF508-CFTR-HRP surface expression, CFBE41o- cells; for Emax: read-out: DelF508-CFTR-HRP Amax %; for EC50: read-out: DelF508-CFTR-HRP EC50. An outline of the steps: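 CFBE41o- bronchial epithelial cells stably expressing delF508-CFTR with HRP in the fourth extracellular loop; expression induced 48h with 500 ng/mL doxycycline, then compounds added (top 10 μM, 10-point 3-fold series, ≤0.5% DMSO) for 24h at 37° C. Surface HRP measured by luminescence with cell-impermeant substrate; EC50 from logistic fit of triplicates, plate-normalized to lowest concentration; efficacy also relative to a reference corrector.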

Where a name gives a salt, the structure may show the parent alone.

Our source for the Emax and EC50 values is US11066369B2, “N-(pyridin-2-yl)pyridine-sulfonamide derivatives and their use in the treatment of disease” (Novartis AG, priority 2016, dated 2021).

T1 sequence (P13569 with tags, fused parts or gaps DEL508-508): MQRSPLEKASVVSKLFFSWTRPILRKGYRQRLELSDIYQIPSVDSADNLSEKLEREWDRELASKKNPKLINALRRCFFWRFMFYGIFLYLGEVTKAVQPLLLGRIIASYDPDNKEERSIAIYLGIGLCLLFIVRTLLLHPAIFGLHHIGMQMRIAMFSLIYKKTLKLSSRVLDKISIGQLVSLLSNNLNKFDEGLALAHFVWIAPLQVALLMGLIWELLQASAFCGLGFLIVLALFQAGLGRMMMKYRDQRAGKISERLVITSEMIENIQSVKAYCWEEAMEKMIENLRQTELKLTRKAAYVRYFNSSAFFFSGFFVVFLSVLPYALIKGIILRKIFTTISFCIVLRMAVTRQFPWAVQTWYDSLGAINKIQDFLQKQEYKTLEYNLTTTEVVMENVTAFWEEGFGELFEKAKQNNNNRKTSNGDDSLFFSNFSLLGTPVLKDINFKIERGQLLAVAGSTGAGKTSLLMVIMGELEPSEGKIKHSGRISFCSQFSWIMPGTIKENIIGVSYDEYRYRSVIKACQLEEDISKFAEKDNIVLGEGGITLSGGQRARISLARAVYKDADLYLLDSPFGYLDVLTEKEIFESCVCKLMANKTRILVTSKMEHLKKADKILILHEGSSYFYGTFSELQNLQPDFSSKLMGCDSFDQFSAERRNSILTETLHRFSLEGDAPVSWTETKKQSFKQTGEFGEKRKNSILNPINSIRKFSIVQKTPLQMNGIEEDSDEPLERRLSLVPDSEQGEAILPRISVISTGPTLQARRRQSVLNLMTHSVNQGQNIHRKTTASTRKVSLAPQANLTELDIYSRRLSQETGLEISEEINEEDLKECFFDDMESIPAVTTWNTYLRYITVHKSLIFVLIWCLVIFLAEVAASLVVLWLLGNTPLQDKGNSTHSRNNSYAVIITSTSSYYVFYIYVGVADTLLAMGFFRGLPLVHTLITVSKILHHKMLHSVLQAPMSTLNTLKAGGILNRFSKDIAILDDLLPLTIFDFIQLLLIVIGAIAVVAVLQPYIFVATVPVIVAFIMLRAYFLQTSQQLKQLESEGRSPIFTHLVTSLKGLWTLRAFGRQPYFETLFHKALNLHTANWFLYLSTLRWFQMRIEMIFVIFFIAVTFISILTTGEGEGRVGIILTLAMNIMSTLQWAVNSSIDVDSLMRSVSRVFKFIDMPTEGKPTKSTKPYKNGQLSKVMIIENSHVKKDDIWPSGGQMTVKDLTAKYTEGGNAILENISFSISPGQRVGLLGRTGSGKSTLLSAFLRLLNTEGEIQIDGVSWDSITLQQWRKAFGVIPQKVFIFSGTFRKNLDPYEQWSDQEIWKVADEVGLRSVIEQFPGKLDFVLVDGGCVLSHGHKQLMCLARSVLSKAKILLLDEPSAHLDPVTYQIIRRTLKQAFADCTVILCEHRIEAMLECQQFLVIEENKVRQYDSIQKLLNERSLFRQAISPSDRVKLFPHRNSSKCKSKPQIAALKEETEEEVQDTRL

In the case of `Cc1c(F)cccc1-c1nc(NS(=O)(=O)c2cccc(N3CCNCC3)n2)ccc1Cl` [Example 194, N-[5-chloro-6-(3-fluoro-2-methylphenyl)pyridin-2-yl]-6-(piperazin-1-yl)pyridine-2-sulfonamide hydrochloride], the Emax came to 177% and the EC50 amounted to 3.84 µM.

Turning to `Cc1cccc(C)c1-c1nc(NS(=O)(=O)c2cccc(N3CCn4ccnc4C3)n2)ccc1Cl` [Example 198, N-(5-chloro-6-(2,6-dimethylphenyl)pyridin-2-yl)-6-(5,6-dihydroimidazo[1,2-a]pyrazin-7(8H)-yl)pyridine-2-sulfonamide], the Emax turned out to be 692% and the EC50 is 1.95 µM.

`Cc1ccc(F)cc1-c1nc(NS(=O)(=O)c2cccc(N3C[C@@H]4CC[C@H]3CN4)n2)ccc1C(F)(F)F` [Example 200, 6-((1S,4S)-2,5-diazabicyclo[2.2.2]octan-2-yl)-N-(6-(5-fluoro-2-methylphenyl)-5-(trifluoromethyl)pyridin-2-yl)pyridine-2-sulfonamide Hydrochloride]: the Emax worked out at 553% and the EC50 is 3.17 µM.

`Cc1ccc(F)cc1-c1nc(NS(=O)(=O)c2cccc(N3CCN4CC[C@H]3C4)n2)ccc1C(F)(F)F` [Example 202, 6-((5S)-1,4-diazabicyclo[3.2.1]octan-4-yl)-N-(6-(5-fluoro-2-methylphenyl)-5-(trifluoromethyl)pyridin-2-yl)pyridine-2-sulfonamide]: the Emax stood at 159% and the EC50 is 3.93 µM.

Regarding `COc1cc(NS(=O)(=O)c2cccc(N3CC(C)(O)C3)n2)nc(-c2c(C)cccc2C)c1` [Example 206, N-(6-(2,6-dimethylphenyl)-4-methoxypyridin-2-yl)-6-(3-hydroxy-3-methylazetidin-1-yl)pyridine-2-sulfonamide], the Emax was 95.9% and the EC50 is 3.7 µM.

Turning to `COC(=O)C1(C)CCN(c2cccc(S(=O)(=O)Nc3ccc(C(F)(F)F)c(-c4ccccc4C4CC4)n3)n2)CC1` [Example 236, methyl 1-(6-(N-(6-(2-cyclopropylphenyl)-5-(trifluoromethyl)pyridin-2-yl)sulfamoyl)pyridin-2-yl)-4-methylpiperidine-4-carboxylate], the Emax worked out at 602% and the EC50 worked out at 0.573 µM.

As to `CC1(C(=O)O)CCN(c2cccc(S(=O)(=O)Nc3ccc(Cl)c(-c4ccccc4Cl)n3)n2)CC1` [Example 239, 1-(6-(N-(5-chloro-6-(2-chlorophenyl)pyridin-2-yl)sulfamoyl)pyridin-2-yl)-4-methylpiperidine-4-carboxylic Acid], the Emax stood at 280% and the EC50 was 4.51 µM.

With `CC1(C(=O)O)CCN(c2cccc(S(=O)(=O)Nc3ccc(C(F)(F)F)c(-c4ccc(F)cc4Cl)n3)n2)CC1` [Example 240, 1-(6-(N-(6-(2-chloro-4-fluorophenyl)-5-(trifluoromethyl)pyridin-2-yl)sulfamoyl)pyridin-2-yl)-4-methylpiperidine-4-carboxylic Acid], the Emax was found to be 385% and the EC50 was 3.42 µM.

Regarding `CC1(C(=O)O)CCN(c2cccc(S(=O)(=O)Nc3ccc(Cl)c(-c4ccc(F)cc4Cl)n3)n2)CC1` [Example 243, 1-(6-(N-(5-chloro-6-(2-chloro-4-fluorophenyl)pyridin-2-yl)sulfamoyl)pyridin-2-yl)-4-methylpiperidine-4-carboxylic Acid], the Emax was 152% and the EC50 turned out to be 2.6 µM.

Regarding `COc1ccc(Cl)c(-c2nc(NS(=O)(=O)c3cccc(N4CCC(C)(C(=O)O)CC4)n3)ccc2Cl)c1` [Example 244, 1-(6-(N-(5-chloro-6-(2-chloro-5-methoxyphenyl)pyridin-2-yl)sulfamoyl)pyridin-2-yl)-4-methylpiperidine-4-carboxylic Acid], the Emax was 222% and the EC50 was 3.65 µM.

Take `CCOC(=O)C1(C)CCN(c2cccc(S(=O)(=O)Nc3ccc(Cl)c(-c4cccc(F)c4C)n3)n2)CC1` [Example 252, ethyl 1-(6-(N-(5-chloro-6-(3-fluoro-2-methylphenyl)pyridin-2-yl)sulfamoyl)pyridin-2-yl)-4-methylpiperidine-4-carboxylate]: the Emax was 602% and the EC50 is 2.47 µM.

`CCOC(=O)C1(C)CCN(c2cccc(S(=O)(=O)Nc3ccc(C(F)(F)F)c(-c4cccc(F)c4C)n3)n2)CC1` [Example 258, ethyl 1-(6-{[6-(3-fluoro-2-methylphenyl)-5-(trifluoromethyl)pyridin-2-yl]sulfamoyl}pyridin-2-yl)-4-methylpiperidine-4-carboxylate]: the Emax was found to be 828% and the EC50 worked out at 1.39 µM.

For `COC(=O)C1(O)CCN(c2cccc(S(=O)(=O)Nc3ccc(Cl)c(-c4c(C)cccc4C)n3)n2)CC1` [Example 260, methyl 1-(6-{[5-chloro-6-(2,6-dimethylphenyl)pyridin-2-yl]sulfamoyl}pyridin-2-yl)-4-hydroxypiperidine-4-carboxylate], the Emax is 59.8% and the EC50 was 3.8 µM.

With `Cc1cccc(C)c1-c1nc(NS(=O)(=O)c2cccc(N3CCC(O)(C(=O)O)CC3)n2)ccc1Cl` [Example 261, 1-(6-{[5-chloro-6-(2,6-dimethylphenyl)pyridin-2-yl]sulfamoyl}pyridin-2-yl)-4-hydroxypiperidine-4-carboxylic Acid], the Emax amounted to 22.8% and the 50% effective concentration (EC50) turned out to be 4.14 µM.

Regarding `CCOC(=O)C1(C)CCN(c2cccc(S(=O)(=O)Nc3ccc(C(F)(F)F)c(-c4c(C)cccc4C)n3)n2)CC1` [Example 266, ethyl 1-(6-{[6-(2,6-dimethylphenyl)-5-(trifluoromethyl)pyridin-2-yl]sulfamoyl}pyridin-2-yl)-4-methylpiperidine-4-carboxylate], the EC50 was 1.28 µM.

Take `COC(=O)C1(NC(=O)OC(C)(C)C)CCN(c2cccc(S(=O)(=O)Nc3ccc(Cl)c(-c4c(C)cccc4C)n3)n2)CC1` [Example 267, methyl 4-{[(tert-butoxy)carbonyl]amino}-1-(6-{[5-chloro-6-(2,6-dimethylphenyl)pyridin-2-yl]sulfamoyl}pyridin-2-yl)piperidine-4-carboxylate]: the Emax turned out to be 887% and the EC50 stood at 1.26 µM.

As to `Cc1cccc(C)c1-c1nc(NS(=O)(=O)c2cccc(N3CCC(NC(=O)OC(C)(C)C)(C(=O)O)CC3)n2)ccc1Cl` [Example 268, 4-{[(tert-butoxy)carbonyl]amino}-1-(6-{[5-chloro-6-(2,6-dimethylphenyl)pyridin-2-yl]sulfamoyl}pyridin-2-yl)piperidine-4-carboxylic Acid], the Emax turned out to be 103% and the EC50 came to 3.73 µM.

In the case of `Cc1cccc(C)c1-c1nc(NS(=O)(=O)c2cccc(N3CCC(N)(C(=O)O)CC3)n2)ccc1Cl` [Example 269, 4-amino-1-(6-{[5-chloro-6-(2,6-dimethylphenyl)pyridin-2-yl]sulfamoyl}pyridin-2-yl)piperidine-4-carboxylic Acid Hydrochloride], the Emax worked out at 105% and the EC50 is 4 µM.

In the case of `Cc1ccc(F)cc1-c1nc(NS(=O)(=O)c2cccc(N3CCN(C(=O)OC(C)(C)C)CC3)n2)ccc1Cl` [Example 298, tert-butyl 4-(6-(N-(5-chloro-6-(5-fluoro-2-methylphenyl)pyridin-2-yl)sulfamoyl)pyridin-2-yl)piperazine-1-carboxylate], the Emax came to 677% and the EC50 worked out at 1.49 µM.
